# Laboratory results taken from US8829203B2, “3′,6-substituted indirubins and their biological applications” (Centre National de la Recherche Scientifique (CNRS), priority 2008, dated 2014).
# Structures can show the parent of a compound that is named as a salt.
# Tests used:
# [1] = target: CDK5/p25 (Homo sapiens, UniProt Q00535); test: CDK5/p25 kinase assay (histone H1, 15 μM ATP); format: biochemical; conditions: 30° C., 30 min
# Procedure: (§1) Blank values were subtracted and activities calculated as pmoles of phosphate incorporated during a […] incubation. The activities were expressed in % of the maximal activity, i.e. in the absence of inhibitors. Controls were performed with appropriate dilutions of dimethylsulfoxide. Phosphorylation of the substrate was assessed by the P81 phosphocellulose assay.
# CDK5/p25 was reconstituted by mixing equal amounts of recombinant human CDK5 and p25 expressed in E. coli as GST (Glutathione-S-transferase) fusion proteins and purified by affinity chromatography on glutathione-agarose (p25 is a truncated version of p35, the 35 kDa CDK5 activator). Its activity was assayed with histone H1 in buffer C as described for CDK1/cyclin B.
# [2] = test system: GSK-3-phosphorylated β-catenin; test: β-catenin phosphorylation at GSK-3 sites in SH-SY5Y cells (Western blot / ELISA); format: cell-based, human; conditions: 6 hours, 10 μM or range of concentrations, with 2 μM MG132
# Procedure: 2a. […] The level of GSK-3-phosphorylated β-catenin was estimated by Western blotting following SDS-PAGE, using an antibody that specifically cross-reacts with GSK-3 phosphorylated β-catenin. […] 2b. Dose-response curves for a selection of indirubins were run in an ELISA assay using the same antibodies directed against GSK-3 phosphorylated β-catenin. SH-SY5Y cells were exposed for 6 hours to a range of concentrations of each indirubin, in the presence of MG132, and extracts were assessed in the ELISA assay. Activity was expressed as percentage of phosphorylated β-catenin in untreated control cells.
# Nearly confluent SH-SY5Y human neuroblastoma cells were grown in 96 plates in DMEM (supplemented with 10% FCS and antibiotics). Cells were co-treated with tested compounds and 2 μM MG132 (to allow accumulation of phosphorylated β-catenin) for 6 hours. […] Cells were then subjected to an ELISA assay using antibodies directed against Ser33/Ser37/Thr41-phosphorylated (1:1000) p-catenin obtained from Cell Signaling Technology. Results are expressed in percentage of maximal β-Catenin phosphorylation, i.e. in untreated cells exposed to MG132 only as positive control (100% phosphorylation).
# Cells were resuspended, lysed for 30 min at 4° C. in Homogenization Buffer and sonicated. After centrifugation (14000 r.p.m. for 15 min at 4° C.), the protein concentration was determined in the supernatants by the Bradford protein assay (Bio-Rad). Following heat denaturation for 5 min, proteins were separated by 10% NuPAGE pre-cast Bis-Tris Acetate polyacrylamide mini gel (Invitrogen) with MOPS SDS running buffer. Proteins were transferred to 0.45 μm nitrocellulose filters (Schleicher and Schuell). These were blocked with 5% low fat milk in Tris-Buffered Saline—Tween-20, incubated overnight at 4° C. with antibodies directed against Ser33/Ser37/Thr41-phosphorylated β-catenin (1:1000) (Cell Signaling Technology) and analyzed by Enhanced Chemiluminescence (ECL, Amersham).
# Cells were exposed to various concentrations […] of each indirubin in the presence of a constant level of MG132 (an inhibitor of the proteasome which prevented the rapid degradation of β-catenin once phosphorylated by GSK-3). The level of GSK-3-phosphorylated was estimated either by Western blotting (with an antibody that specifically cross-reacts with β-catenin when phosphorylated at a GSK-3 site) following SDS-PAGE (FIG. 2a) or by an ELISA assay (FIG. 2b). […] Dose-response curves were obtained with ELISA assay (FIG. 2b).
# [3] = target: CDK1/cyclin B; test: CDK1/cyclin B kinase assay (histone H1, 15 μM ATP); format: biochemical, starfish (Marthasterias glacialis); conditions: 30° C., 30 min
# [4] = target: GSK-3α/β; test: GSK-3α/β kinase assay (GS-1 substrate, 15 μM ATP); format: biochemical, porcine; conditions: 30° C., 30 min, read-out: GSK3 IC50
# Procedure: as §1
# GSK-3α/β was purified from porcine brain by affinity chromatography on immobilized axin^5. […] ATP (3,000 Ci/mmol; 10 mCi/ml) in a final volume of 30 μl. After 30 min. incubation at 30° C., 25 μl aliquots of supernatant were processed as described above.
# Chain of CDK5/p25 (Q00535 whole entry): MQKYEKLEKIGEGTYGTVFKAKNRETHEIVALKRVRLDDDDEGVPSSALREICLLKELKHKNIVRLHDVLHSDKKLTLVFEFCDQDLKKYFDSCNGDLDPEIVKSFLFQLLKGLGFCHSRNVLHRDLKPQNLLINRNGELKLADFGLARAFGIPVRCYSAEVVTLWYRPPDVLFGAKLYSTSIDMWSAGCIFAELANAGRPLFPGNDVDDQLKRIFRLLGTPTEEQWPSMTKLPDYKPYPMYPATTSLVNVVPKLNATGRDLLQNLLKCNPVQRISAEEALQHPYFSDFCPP
# Chain of CDK5/p25 (Q15078 99-307 partner limits assumed): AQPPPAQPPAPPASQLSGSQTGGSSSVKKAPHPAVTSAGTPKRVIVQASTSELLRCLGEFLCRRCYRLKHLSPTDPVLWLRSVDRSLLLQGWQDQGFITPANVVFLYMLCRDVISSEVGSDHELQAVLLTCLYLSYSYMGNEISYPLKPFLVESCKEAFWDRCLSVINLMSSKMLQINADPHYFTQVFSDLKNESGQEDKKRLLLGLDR
Structure (SMILES),IC50 [1] [nM],IC50 [3] [nM],IC50 [4] [nM],melting point [°C],Inhibition of β-catenin phosphorylation at GSK-3 sites [2]
"CN1C(=O)C(=C2Nc3ccccc3C2=NO)c2ccc(Br)cc21 [1-methyl-6BIO, reference compound]",,,,,ineffective
"O=C1Nc2cc(Br)ccc2/C1=C1/Nc2ccccc2/C1=N\OCCN1CCCC1 [Cpd 7, (2′Z-3′E)-6-Bromoindirubin-3′-[O-(2-pyrrolidin-1-ylethyl)oxime]]",130,500,26,,
"CCN(CC)CCO/N=C1/C(=C2/C(=O)Nc3cc(Br)ccc32)Nc2ccccc21 [Cpd 17, (2′Z-3′E)-6-Bromoindirubin-3′-[O-(2-diethylaminoethyl)oxime]Hydrochloride]",40,190,27,,
"CN(C)CCO/N=C1/C(=C2/C(=O)Nc3cc(Br)ccc32)Nc2ccccc21 [Cpd 16, (2′Z-3′)-6-Bromoindirubin-3′-[O-(2-dimethylaminoethyl)oxime]Hydrochloride]",,,,,most efficient
CN(CCON=C1C(=C2C(=O)Nc3cc(Br)ccc32)Nc2ccccc21)CC(O)CO (stereo not shown) [Cpd 21],100,150,23,,
O=C1Nc2cc(Br)ccc2/C1=C1/Nc2ccccc2/C1=N\OCCN1CCN(CCO)CC1 [Cpd 24],,,,,most efficient
"O=C1Nc2cc(Br)ccc2/C1=C1/Nc2ccccc2/C1=N\OCCN1CCNCC1 [Cpd 11, (2′Z-3′E)-6-Bromoindirubin-3′-[O-(2-piperazine-1-ylethyl)oxime]]",,,,,most efficient
O=C1Nc2cc(Br)ccc2/C1=C1/Nc2ccccc2/C1=N\OCCN(CCO)CCO [Cpd 9],,,,201,most efficient
"CCN(CC)CCO/N=C1/C(=C2/C(=O)Nc3cc(Br)ccc32)Nc2ccccc21 [Cpd 6, (2′Z-3′E)-6-Bromoindirubin-3′-[O-(2-diethylaminoethyl)-oxime]]",20,90,35,,
"CN(C)CCO/N=C1/C(=C2/C(=O)Nc3cc(Br)ccc32)Nc2ccccc21 [Cpd 5, (2′Z-3′E)-6-Bromoindirubin-3′-[O-(2-dimethylaminoethyl)-oxime]]",,,,,most efficient
O=C1Nc2cc(Br)ccc2/C1=C1/Nc2ccccc2/C1=N\OCCN1CCN(CCO)CC1 [Cpd 13],,,,,most efficient
"O=C1Nc2cc(Br)ccc2/C1=C1/Nc2ccccc2/C1=N\OCCN1CCCC1 [Cpd 18, (2′Z-3′)-6-Bromoindirubin-3′-[O-(2-pyrrolidin-1-ylethyl)oxime]Hydrochloride]",100,450,54,,

# Second part, led by results:
IC50 [1] [nM],IC50 [3] [nM],IC50 [4] [nM],melting point [°C],Structure (SMILES),Inhibition of β-catenin phosphorylation at GSK-3 sites [2]
180,,,,"O=C1Nc2cc(Br)ccc2/C1=C1/Nc2ccccc2/C1=N\OCCN1CCNCC1 [Cpd 22, (2′Z-3′E)-6-Bromoindirubin-3′-[O-(2-piperazine-1-ylethyl)oxime]Dihydrochloride]",most efficient
,> 10000,140,252,"O=C1Nc2cc(Br)ccc2/C1=C1/Nc2ccccc2/C1=N\OCCBr [Cpd 1, (2′Z-3′E)-6-Bromoindirubin-3-[O-(2-bromoethyl)-oxime]]",
330,500,33,,"O=C1Nc2cc(Br)ccc2/C1=C1/Nc2ccccc2/C1=N\OCCN1CCN(CCOCCO)CC1 [Cpd 26, (2′Z-3′E)-6-Bromoindirubin-3′-[O-(2-{4-[2-(2-hydroxyethoxy)-ethyl]piperazin-1-yl}ethyl)oxime]Dihydrochloride]",
,> 10000,30,237,"CCN(CC)C(=O)O/N=C1/C(=C2/C(=O)Nc3cc(Br)ccc32)Nc2ccccc21 [Cpd 4, (2′Z-3′E)-6-Bromoindirubin-3′-[O-(N,N-diethylcarbamyl)-oxime]]",
400,400,7,,"CN1CCN(CCO/N=C2/C(=C3/C(=O)Nc4cc(Br)ccc43)Nc3ccccc32)CC1 [Cpd 12, (2′Z-3′E)-6-Bromoindirubin-3′-{O-[2-(4-methyl-piperazin-1-yl)ethyl]oxime}]",most efficient
300,300,5,,"CN1CCN(CCO/N=C2/C(=C3/C(=O)Nc4cc(Br)ccc43)Nc3ccccc32)CC1 [Cpd 23, (2′Z-3′E)-6-Bromoindirubin-3′-{O-[2-(4-methylpiperazin-1-yl)ethyl]oxime}Dihydrochloride]",most efficient
400,1000,20,,COCCN1CCN(CCO/N=C2/C(=C3/C(=O)Nc4cc(Br)ccc43)Nc3ccccc32)CC1 [Cpd 25],
25,110,34,> 300,"O=C1Nc2cc(Br)ccc2/C1=C1/Nc2ccccc2/C1=N\OCC(O)CO (stereo not shown) [Cpd 3, (2′Z-3′E)-6-Bromoindirubin-3′-[O-(2,3-dihydroxypropyl)-oxime]]",most efficient
500,2800,11,,COCCN1CCN(CCO/N=C2/C(=C3/C(=O)Nc4cc(Br)ccc43)Nc3ccccc32)CC1 [Cpd 14],
240,240,67,195,"CN(CCO/N=C1/C(=C2/C(=O)Nc3cc(Br)ccc32)Nc2ccccc21)CC(O)CO (stereo not shown) [Cpd 10, (2′Z-3′E)-6-Bromoindirubin-3′-(O-{2-[-methyl, N-(2,3-dihydroxypropyl)amino]ethyl}oxime]]",
,,,235,"O=C1Nc2cc(Br)ccc2/C1=C1/Nc2ccccc2/C1=N\OCCN1CCOCC1 [Cpd 8, (2′Z-3′E)-6-Bromoindirubin-3′-[O-(2-morpholin-1-ylethyl)oxime]]",
5000,1700,1700,,"O=C1Nc2cc(Br)ccc2/C1=C1/Nc2ccccc2/C1=N\OCCO [Cpd 2, (2′Z-3′E)-6-Bromoindirubin-3′-[O-(2-hydroxyethyl)-oxime]]",
